US12115157B2, “3-phenoxyazetidin-1-yl-heteroaryl pyrrolidine derivatives and the use thereof as medicament” (Boehringer Ingelheim International GmbH, priority 2021, dated 2024)

Tests used:
human GPR52 = human GPR52 (Homo sapiens (Human), UniProt Q9Y2T5); test: HTRF assay for direct cAMP measurement; format: cell-based; settings: CHO-K1 cells stably expressing recombinant human GPR52, mean EC50
Description: HTRF cAMP assays were performed using commercially available assay kits according to the manufacturer's instructions (cAMP Dynamic 2 Assay Kit; #62AM4PEJ, Cisbio Bioassays, Bedford, MA). An aliquot of CHO-K1 cells stably expressing recombinant human GPR52 was thawed and resuspended in cell buffer (1×PBS (w/o Ca^2+/Mg^2+)) at a density of 4×10^5 cells per mL. Test compounds were solubilized in DMSO to 10 mM stock solutions and serially diluted in DMSO using 6-fold dilutions to generate 8-point dose response curves. These serially diluted samples were then diluted 1:50 in compound dilution buffer (1×PBS (w/o Ca^2+/Mg^2+) containing 0.5 mM IBMX, 0.1% BSA) to achieve a 4× stock. The diluted compounds were transferred (5 μL per well) in duplicate to the 384-well assay plate (Optiplate #6007290, PerkinElmer, Waltham, MA). Both a positive (reference compound) and negative (non-stimulated vehicle) control was included in each assay run in column 23. The cell suspension was subsequently dispensed into the 384-well assay plates at 15 μL per well (6000 cells) such that the compound was diluted to 1×. […] After a one-hour incubation at room temperature, 10 μL of cAMP D2 reagent followed by 10 μL of cryptate reagent (provided in the Cisbio kit) was added to each well. Plates were then incubated at room temperature for one hour prior to reading. Time-resolved fluorescence measurements were collected on an EnVision® HTRF plate reader (PerkinElmer, Waltham, MA). Counts from the plate reader were fit to the cAMP standard curve included on each plate to determine the amount of cAMP in each test well. The % control was calculated based on the […]. Dose-response curves were generated from the cAMP data and analyzed using a nonlinear least squares curve-fitting program to obtain EC50 values.

human hepatocytes = test: Metabolic stability in human hepatocytes; format: in vitro ADME; settings: human hepatocyte suspension, 1 μM; predicted hepatic clearance as percentage of hepatic blood flow
Description: The metabolic degradation of a test compound was assayed in a human hepatocyte suspension. After recovery from cryopreservation, human hepatocytes were diluted in Dulbecco's modified eagle medium (supplemented with 3.5 μg glucagon/500 mL, 2.5 mg insulin/500 mL, 3.75 mg hydrocortisone/500 mL, 5% human serum) to obtain a final cell density of 1.0×10^6 cells/mL or 4.0×10^6 cells/mL, depending on the metabolic turnover rate of the test compound.
Following a 30 minutes preincubation in a cell culture incubator (37° C., 10% CO2), test compound solution was spiked into the hepatocyte suspension, resulting in a final test compound concentration of 1 μM and a final DMSO concentration of 0.05% (v/v).
The cell suspension was incubated at 37° C. (cell culture incubator, horizontal shaker) and samples were removed from the incubation after 0, 0.5, 1, 2, 4 and 6 hours. Samples were quenched with acetonitrile (containing internal standard) and pelleted by centrifugation. The supernatant was transferred to a 96-deepwell plate, and prepared for analysis of decline of parent compound by HPLC-MS/MS.
The percentage of remaining test compound was calculated using the peak area ratio (test compound/internal standard) of each incubation time point relative to the time point 0 peak area ratio. The log-transformed data were plotted versus incubation time, and the absolute value of the slope obtained by linear regression analysis was used to estimate in vitro half-life (T1/2).
In vitro intrinsic clearance (CLint) was calculated from in vitro T1/2 and scaled to whole liver using a hepatocellularity of 120×10^6 cells/g liver, a human liver per body weight of 25.7 g liver/kg as well as in vitro incubation parameters, applying the following equation: CL_[…]_IN VIVO[mL/min/kg]=(CL_[…][μL/min/10^6 cells]×hepatocellularity[10^6 cells/g liver]×liver factor[g/kg body weight])/1000
Hepatic in vivo blood clearance (CL) was predicted according to the well-stirred liver model considering an average liver blood flow (QH) of 20.7 mL/min/kg: CL[mL/min/kg]=CL_[…]_IN VIVO[mL/min/kg]×hepatic blood flow[mL/min/kg]/(CL_[…]_IN VIVO[mL/min/kg]+hepatic blood flow[mL/min/kg])
Results were expressed as percentage of hepatic blood flow: QH[%]=CL[mL/min/kg]/hepatic blood flow[mL/min/kg])

human plasma proteins = test: Human plasma protein binding assay (equilibrium dialysis); format: in vitro ADME; settings: 1 μM, 2 hours, 37° C.
Description: Equilibrium dialysis (ED) technique was used to determine the approximate in vitro fractional binding of test compounds to plasma proteins. Dianorm Teflon dialysis cells (micro 0.2) were used. Each dialysis cell consists of a donor and an acceptor chamber, separated by an ultrathin semipermeable membrane with a 5 kDa molecular weight cut-off. Stock solutions for each test compound were prepared in DMSO at 1 mM and serially diluted to obtain a final test concentration of 1 μM. The subsequent dialysis solutions were prepared in plasma (supplemented with NaEDTA as anticoagulant), and aliquots of 200 μL test compound dialysis solution in plasma were dispensed into the donor (plasma) chambers. Aliquots of 200 μL dialysis buffer (100 mM potassium phosphate, pH 7.4) were dispensed into the buffer (acceptor) chamber. Incubation was carried out for 2 hours under rotation at 37° C. for establishing equilibrium.
At the end of the dialysis period, aliquots obtained from donor and acceptor chambers, respectively, were transferred into reaction tubes, spiked with Internal Standard solution and processed for HPLC-MS/MS analysis. Analyte concentrations were quantified in aliquots of samples by HPLC-MS/MS against external calibration curves.
Percent bound was calculated using the formula: % bound=(plasma concentration−buffer concentration/plasma concentration)×100

hERG channel = hERG channel (Homo sapiens (Human), UniProt Q12809); test: hERG channel assay (whole-cell patch clamp); format: cell-based; settings: HEK293 cells stably transfected with hERG cDNA
Source text: hERG Channel inhibition of compounds of the present invention was investigated as follows:
HEK (human embryonic kidney) 293 cells were stably transfected with hERG cDNA. Cells determined for use in patch clamp experiments were cultivated without antibiotic.
Cells were superfused with a bath solution containing (mM): NaCl (137), KCl (4.0), MgCl2 (1.0), CaCl2(1.8), Glucose (10), HEPES (10), pH 7.4 with NaOH. Patch pipettes were made from borosilicate glass tubing using a pipette and filled with pipette solution containing (mM): K-aspartate (130), MgCl2(5.0), EGTA (5.0), K2ATP (4.0), HEPES (10.0), pH 7.2 with KOH. Resistance of the microelectrodes was typically in the range between 2 MΩ and 5 MΩ.
Membrane currents were recorded using an EPC-10 patch clamp amplifier (HEKA Electronics, Lambrecht, FRG) and PatchMaster software (HEKA). hERG-mediated membrane currents were recorded at typically 28° C., using the whole-cell configuration of the patch-clamp technique. Transfected HEK293 cells were clamped at a holding potential of −60 mV and hERG-mediated inactivating tail currents were elicited using a pulse pattern with fixed amplitudes (activation/inactivation: 40 mV for 2000 ms; recovery: 120 mV for 2 ms; ramp to 40 mV in 2 ms; inactivating tail current: 40 mV for 50 ms) repeated at 15 s intervals. During each inter-pulse interval 4 pulses scaled down by a factor of 0.2 were recorded for a P/n leak subtraction procedure. Rs compensation was employed up to a level that safely allows recording devoid of ringing. The remaining uncompensated Rs was recorded as well as actual temperature and holding current.
The concentrations of the test item were applied sequentially on each of the different cells investigated. A steady state level of baseline current was measured for at least 5 sweeps prior to the application of the first test article concentration. The test item was dissolved in DMSO to yield a stock solution of 1000-fold the highest final concentration. This stock was diluted further in DMSO to stock solutions of 1000-fold the remaining final concentrations. Final dilutions in extracellular buffer were prepared freshly from these stocks by a 1:1000 dilution step each before starting the experiments.
Peak current amplitudes were measured 3 ms after the ramp to +40 mV. For baseline and each concentration, the peak currents of the three last sweeps before application of the next concentration were averaged. Residual currents (I/I0) were calculated for each cell as the fraction of actual average peak current and average baseline peak current. Current inhibition was expressed as […]. Current inhibition for all cells was reported as mean ±SD. If possible, from mean current inhibition data the IC50 was estimated based on the Hill equation using a least squares procedure.

human GPR52, sequence (Q9Y2T5 whole entry): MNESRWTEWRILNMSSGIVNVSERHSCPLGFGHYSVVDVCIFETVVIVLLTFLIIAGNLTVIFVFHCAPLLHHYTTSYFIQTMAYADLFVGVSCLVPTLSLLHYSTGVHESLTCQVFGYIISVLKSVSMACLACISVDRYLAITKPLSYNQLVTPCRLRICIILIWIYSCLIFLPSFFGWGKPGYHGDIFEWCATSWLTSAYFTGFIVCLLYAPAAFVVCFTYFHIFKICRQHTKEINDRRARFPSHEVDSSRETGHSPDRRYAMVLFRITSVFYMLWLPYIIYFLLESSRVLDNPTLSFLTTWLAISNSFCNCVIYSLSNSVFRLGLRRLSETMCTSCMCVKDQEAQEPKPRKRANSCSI
hERG channel, sequence (Q12809 whole entry): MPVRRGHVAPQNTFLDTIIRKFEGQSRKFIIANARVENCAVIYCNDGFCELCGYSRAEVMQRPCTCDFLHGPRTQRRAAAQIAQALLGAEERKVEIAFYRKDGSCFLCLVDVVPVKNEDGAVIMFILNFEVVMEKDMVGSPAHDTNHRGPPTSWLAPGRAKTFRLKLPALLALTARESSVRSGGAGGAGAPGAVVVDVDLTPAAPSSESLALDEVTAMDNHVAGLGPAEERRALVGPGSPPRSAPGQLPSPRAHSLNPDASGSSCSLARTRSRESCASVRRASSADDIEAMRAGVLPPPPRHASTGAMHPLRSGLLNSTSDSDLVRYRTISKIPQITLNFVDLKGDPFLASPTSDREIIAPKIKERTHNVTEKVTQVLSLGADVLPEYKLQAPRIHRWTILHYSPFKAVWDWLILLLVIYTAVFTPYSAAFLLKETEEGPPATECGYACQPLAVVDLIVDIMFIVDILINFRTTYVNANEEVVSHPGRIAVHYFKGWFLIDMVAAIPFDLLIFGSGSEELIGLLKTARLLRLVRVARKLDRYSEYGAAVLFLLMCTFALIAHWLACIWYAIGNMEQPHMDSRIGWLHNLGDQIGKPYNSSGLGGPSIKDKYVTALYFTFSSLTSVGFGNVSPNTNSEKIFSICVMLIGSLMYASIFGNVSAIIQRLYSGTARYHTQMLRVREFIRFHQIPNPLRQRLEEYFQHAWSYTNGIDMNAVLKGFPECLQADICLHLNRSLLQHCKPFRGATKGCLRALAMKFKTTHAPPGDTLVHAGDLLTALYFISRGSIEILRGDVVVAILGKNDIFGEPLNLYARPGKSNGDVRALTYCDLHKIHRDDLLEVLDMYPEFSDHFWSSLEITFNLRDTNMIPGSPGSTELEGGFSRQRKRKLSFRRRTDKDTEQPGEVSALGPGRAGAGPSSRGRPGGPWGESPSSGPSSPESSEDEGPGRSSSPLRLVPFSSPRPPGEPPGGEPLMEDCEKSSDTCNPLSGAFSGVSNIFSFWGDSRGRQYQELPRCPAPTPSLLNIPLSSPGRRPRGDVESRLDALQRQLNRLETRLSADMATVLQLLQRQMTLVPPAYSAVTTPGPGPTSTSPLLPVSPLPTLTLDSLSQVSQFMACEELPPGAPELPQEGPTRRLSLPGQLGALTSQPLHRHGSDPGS

EC50 (human GPR52) [nM] | Human HepStab (human hepatocytes) [% QH] | Hu PPB (human plasma proteins) [% bound] | SMILES | IC50 (hERG channel) [nM]
378 | 27.7 | 88.2 | O=C(NC1CNCC1(F)F)c1nccnc1N1CC(Oc2cc(F)c(F)c(F)c2)C1 (racemic) [Intermediate H-3] | –
1170 | – | – | CC(=O)N1CC(F)C(NC(=O)c2nsnc2N2CC(Oc3ccc(F)c(F)c3)C2)C1 (single isomer, unassigned) [Example 14a] | –
11 | – | 89.7 | CC(=O)N1CC(F)C(NC(=O)c2nsnc2N2CC(Oc3ccc(F)c(F)c3)C2)C1 (single isomer, unassigned) [Example 14b] | > 10000
210 | – | – | CC(=O)N1CCC(NC(=O)c2nsnc2N2CC(Oc3ccc(F)c(F)c3)C2)C1 (single isomer, unassigned) [Example 16b] | > 10000
1330 | – | – | CC(=O)N1C[C@@H](NC(=O)c2nccnc2N2CC(Oc3cc(F)cc(F)c3)C2)C(F)(F)C1 [Example 10b] | –
– | <4.1 | – | CC(=O)N1CC(F)C(NC(=O)c2nsnc2N2CC(Oc3ccc(F)c(F)c3)C2)C1 (stereo not shown) [Example 14b] | –
168 | – | – | CC(=O)N1CC[C@H](NC(=O)c2nsnc2N2CC(Oc3cc(F)cc(F)c3)C2)C1 [Example 15b] | –
11 | <4.1 | 86.2 | CC(=O)N1CCC(NC(=O)c2nsnc2N2CC(Oc3ccc(F)c(F)c3)C2)C1 (stereo not shown) [Example 16a] | > 10000

The remaining lines, values behind:

SMILES | EC50 (human GPR52) [nM] | Human HepStab (human hepatocytes) [% QH] | Hu PPB (human plasma proteins) [% bound] | IC50 (hERG channel) [nM]
CC(=O)N1CC(NC(=O)c2nccnc2N2CC(Oc3ccc(F)c(Cl)c3)C2)C(F)(F)C1 (racemic) [Example 1] | 15 | 11.1 | 92.6 | > 10000
[2H]C([2H])([2H])C(=O)N1CC(NC(=O)c2nccnc2N2CC(Oc3ccc(F)c(F)c3)C2)C(F)(F)C1 (racemic) [Example 4] | 18 | 8.5 | 79.2 | > 10000
CC(=O)N1CC(NC(=O)c2nccnc2N2CC(Oc3cc(F)cc(Cl)c3)C2)C(F)(F)C1 (racemic) [Example 5] | 27 | 17.0 | 93.2 | > 10000
CC(=O)N1CC(NC(=O)c2nccnc2N2CC(Oc3cc(F)cc(OC(F)F)c3)C2)C(F)(F)C1 (racemic) [Example 7] | 102 | 15.4 | – | –
CS(=O)(=O)N1CC(NC(=O)c2nccnc2N2CC(Oc3cc(F)c(F)c(F)c3)C2)C(F)(F)C1 (racemic) [Example 9] | 19 | 5.8 | 93.4 | > 10000
CCC(=O)N1CC(NC(=O)c2nccnc2N2CC(Oc3ccc(F)c(F)c3)C2)C(F)(F)C1 (stereo not shown) [Example 2] | 24 | 21.3 | 89.9 | 6600
CC(=O)N1CC(NC(=O)c2nccnc2N2CC(Oc3cc(F)cc(C(F)F)c3)C2)C(F)(F)C1 (stereo not shown) [Example 6] | 54 | 4.8 | 87.8 | > 10000
CC(=O)N1CC2(NC(=O)c3nsnc3N3CC(Oc4cc(F)c(F)c(F)c4)C3)CC1C2 [Example 12] | 24 | 5.0 | 88.5 | > 10000
